From patent publication US10710986B2, “PD-1/PD-L1 inhibitors” (Gilead Sciences, Inc., priority 2018, dated 2020) come the findings set out here.

Broadly, the IC50 is the concentration that gives 50% inhibition.

This experiment concerns the target PD-1/PD-L1 (Homo sapiens (Human), UniProt Q9NZQ7). The experiment is described as follows: PD-1/PD-L1 biochemical protein-protein interaction assay (ALPHA). As to conditions: 0.3 nM His tagged PD-L1, 2.5 nM biotinylated Fc-PD-1, 60 minutes at 25° C., read-out: IC50 PD-L1-PD1.

Sequence of PD-1/PD-L1 (Q9NZQ7 19-238): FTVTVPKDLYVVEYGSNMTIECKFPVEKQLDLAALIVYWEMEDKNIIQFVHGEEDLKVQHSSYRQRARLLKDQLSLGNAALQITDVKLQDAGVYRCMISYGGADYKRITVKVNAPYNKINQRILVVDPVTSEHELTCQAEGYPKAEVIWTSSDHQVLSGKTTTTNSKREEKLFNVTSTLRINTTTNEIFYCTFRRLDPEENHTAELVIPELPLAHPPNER

For `COc1nc(-c2cccc(-c3cccc(-c4cnc(CN5CC(N6CC(O)C6)C5)c(OC)n4)c3Cl)c2Cl)cnc1CNC[C@@H]1CCC(=O)N1` [compound 348], the IC50 worked out at 0.138 nM.
Turning to `COc1nc(-c2cccc(-c3cccc(-c4cnc(CN5CC(c6ccccn6)C5)c(OC)n4)c3Cl)c2Cl)cnc1CNC[C@@H]1CCC(=O)N1` [compound 349], the IC50 is 0.389 nM.
The value for `COc1nc(-c2cccc(-c3cccc(-c4cnc(CN5CC(c6ccccc6)C5)c(OC)n4)c3Cl)c2Cl)cnc1CNC[C@@H]1CCC(=O)N1` [compound 350] was 0.737 nM.
The value for `COc1nc(-c2cccc(-c3cccc(-c4cnc(CN5CC(N6CCOCC6)C5)c(OC)n4)c3Cl)c2Cl)cnc1CNC[C@@H]1CCC(=O)N1` [compound 351] was 0.283 nM; that for `COc1nc(-c2cccc(-c3cccc(-c4cnc(Cn5c(C)ccc5C)c(OC)n4)c3Cl)c2Cl)cnc1CNC[C@@H]1CCC(=O)N1` [compound 352] was 4.63 nM.
With `COc1nc(-c2cccc(-c3cccc(-c4cnc(CN[C@@H]5CC[C@H](O)C5)c(OC)n4)c3Cl)c2Cl)cnc1CNC[C@@H]1CCC(=O)N1` [compound 353] the figure was 0.064 nM.
On to `COc1nc(-c2cccc(-c3cccc(-c4cnc(CN[C@@H]5CC[C@@H](O)C5)c(OC)n4)c3Cl)c2Cl)cnc1CNC[C@@H]1CCC(=O)N1` [compound 354], for which the IC50 worked out at 0.133 nM.
With `COc1nc(-c2cccc(-c3cccc(-c4cnc(CN[C@H]5CC[C@H](O)C5)c(OC)n4)c3Cl)c2Cl)cnc1CNC[C@@H]1CCC(=O)N1` [compound 355] the figure was 0.129 nM; with `COc1nc(-c2cccc(-c3cccc(-c4cnc(CN[C@H]5CC[C@@H](O)C5)c(OC)n4)c3Cl)c2Cl)cnc1CNC[C@@H]1CCC(=O)N1` [compound 356], 0.102 nM; with `COc1nc(-c2cccc(-c3cccc(-c4cnc(CN[C@H]5C[C@H](S(C)(=O)=O)C5)c(OC)n4)c3Cl)c2Cl)cnc1CNC[C@@H]1CCC(=O)N1` [compound 357], 0.096 nM.
The value for `COc1nc(-c2cccc(-c3cccc(-c4cnc(CN[C@H]5C[C@@H](S(C)(=O)=O)C5)c(OC)n4)c3Cl)c2Cl)cnc1CNC[C@@H]1CCC(=O)N1` [compound 358] was 0.141 nM; that for `COc1nc(-c2cccc(-c3cccc(-c4cnc(CN[C@H]5CCOC5)c(OC)n4)c3Cl)c2Cl)cnc1CNC[C@@H]1CCC(=O)N1` [compound 359] was 0.132 nM.
Regarding `COc1nc(-c2cccc(-c3cccc(-c4cnc(CN[C@@H]5CCOC5)c(OC)n4)c3Cl)c2Cl)cnc1CNC[C@@H]1CCC(=O)N1` [compound 360], the concentration for half-maximal inhibition (IC50) was found to be 0.401 nM.
The value for `COc1nc(-c2cccc(-c3cccc(-c4cnc(CN[C@H]5C[C@H](NC(C)=O)C5)c(OC)n4)c3Cl)c2Cl)cnc1CNC[C@@H]1CCC(=O)N1` [compound 361] was 0.13 nM; that for `COc1nc(-c2cccc(-c3cccc(-c4cnc(CN[C@H]5C[C@@H](NC(C)=O)C5)c(OC)n4)c3Cl)c2Cl)cnc1CNC[C@@H]1CCC(=O)N1` [compound 362] was 0.074 nM.
With `COc1nc(-c2cccc(-c3cccc(-c4cnc(CNC5CC6(C5)CS(=O)(=O)C6)c(OC)n4)c3Cl)c2Cl)cnc1CNC[C@@H]1CCC(=O)N1` [compound 363] the figure was 0.424 nM; with `COc1nc(-c2cccc(-c3cccc(-c4cnc(CN[C@H]5C[C@H](OC)C5)c(OC)n4)c3Cl)c2Cl)cnc1CNC[C@@H]1CCC(=O)N1` [compound 364], 0.244 nM; with `COc1nc(-c2cccc(-c3cccc(-c4cnc(CN[C@H]5C[C@@H](OC)C5)c(OC)n4)c3Cl)c2Cl)cnc1CNC[C@@H]1CCC(=O)N1` [compound 365], 0.07 nM.
As for `COc1nc(-c2cccc(-c3cccc(-c4cnc(CN[C@H]5C[C@H](C(C)(C)O)C5)c(OC)n4)c3Cl)c2Cl)cnc1CNC[C@@H]1CCC(=O)N1` [compound 366], the IC50 turned out to be 0.115 nM.
As to `COc1nc(-c2cccc(-c3cccc(-c4cnc(CN5CC6(C5)CS(=O)(=O)C6)c(OC)n4)c3Cl)c2Cl)cnc1CNC[C@@H]1CCC(=O)N1` [compound 367], the IC50 turned out to be 0.064 nM.
With `COc1nc(-c2cccc(-c3cccc(-c4cnc(CN5CC6(CNC(=O)C6)C5)c(OC)n4)c3Cl)c2Cl)cnc1CNC[C@@H]1CCC(=O)N1` [compound 368] the figure was 0.064 nM.
With `COc1nc(-c2cccc(-c3cccc(-c4cnc(CN5CC(NC(C)=O)C5)c(OC)n4)c3Cl)c2Cl)cnc1CNC[C@@H]1CCC(=O)N1` [compound 369] the figure was 0.078 nM; with `COc1nc(-c2cccc(-c3cccc(-c4cnc(CNC[C@@H]5CCC(=O)N5)c(OC)n4)c3Cl)c2Cl)cnc1CNCCn1ccccc1=O` [compound 370], 0.064 nM; with `COc1nc(-c2cccc(-c3cccc(-c4cnc(CN5CC6(CCC(=O)N6)C5)c(OC)n4)c3Cl)c2Cl)cnc1CNC[C@@H]1CCC(=O)N1` [compound 371], 0.213 nM.
Consider `COc1nc(-c2cccc(-c3cccc(-c4cnc(CNC[C@@H]5CCC(=O)N5)c(OC)n4)c3Cl)c2Cl)cnc1CNCCN1CCCC1=O` [compound 372], for which the IC50 stood at 0.104 nM.
The value for `COc1nc(-c2cccc(-c3cccc(-c4cnc(CNC[C@@H]5CCC(=O)N5)c(OC)n4)c3Cl)c2Cl)cnc1CNCCNC(C)=O` [compound 373] was 0.13 nM; that for `COc1nc(-c2cccc(-c3cccc(-c4cnc(CNC[C@@H]5CCC(=O)N5)c(OC)n4)c3Cl)c2Cl)cnc1CNCCO` [compound 374] was 0.183 nM.
With `COc1nc(-c2cccc(-c3cccc(-c4cnc(CNC(C)(C)CNC(C)=O)c(OC)n4)c3Cl)c2Cl)cnc1CNC[C@@H]1CCC(=O)N1` [compound 375] the figure was 0.459 nM; with `COc1nc(-c2cccc(-c3cccc(-c4cnc(CNCC(C)(C)NC(C)=O)c(OC)n4)c3Cl)c2Cl)cnc1CNC[C@@H]1CCC(=O)N1` [compound 376], 0.208 nM; with `COc1nc(-c2cccc(-c3cccc(-c4cnc(CNC(C)(C)CO)c(OC)n4)c3Cl)c2Cl)cnc1CNC[C@@H]1CCC(=O)N1` [compound 377], 0.098 nM.
The value for `COc1nc(-c2cccc(-c3cccc(-c4cnc(CNCC(C)(C)O)c(OC)n4)c3Cl)c2Cl)cnc1CNC[C@@H]1CCC(=O)N1` [compound 378] was 0.396 nM; that for `COc1nc(-c2cccc(-c3cccc(-c4cnc(CN5CC(O)C5)c(OC)n4)c3Cl)c2Cl)cnc1CNC[C@@H]1CCC(=O)N1` [compound 379] was 0.155 nM; that for `COc1nc(-c2cccc(-c3cccc(-c4cnc(CN5CC[C@@H](O)C5)c(OC)n4)c3Cl)c2Cl)cnc1CNC[C@@H]1CCC(=O)N1` [compound 380] was 0.203 nM.
As for `COc1nc(-c2cccc(-c3cccc(-c4cnc(CN[C@@H]5CCC[C@@H]5O)c(OC)n4)c3Cl)c2Cl)cnc1CNC[C@@H]1CCC(=O)N1` [compound 381], the IC50 stood at 0.085 nM.
With `COc1nc(-c2cccc(-c3cccc(-c4cnc(CNCC(C)(C)O)c(OC)n4)c3Cl)c2Cl)cnc1CNCC(C)(C)O` [compound 382] the figure was 0.289 nM; with `COc1nc(-c2cccc(-c3cccc(-c4cnc(CN[C@@H]5CCC[C@@H]5O)c(OC)n4)c3Cl)c2Cl)cnc1CN[C@@H]1CCC[C@@H]1O` [compound 383], 0.887 nM; with `COc1nc(-c2cccc(-c3cccc(-c4cnc(CNC(C)(C)CO)c(OC)n4)c3Cl)c2Cl)cnc1CNC(C)(C)CO` [compound 384], 0.154 nM.
`COc1nc(-c2cccc(-c3cccc(-c4cnc([C@H](C)N)c(OC)n4)c3Cl)c2Cl)cnc1[C@H](C)N` [compound 385]: the IC50 was found to be 0.292 nM.
Take `COc1nc(-c2cccc(-c3cccc(-c4cnc([C@@H](C)N)c(OC)n4)c3Cl)c2Cl)cnc1[C@@H](C)N` [compound 386]: the IC50 was found to be 0.879 nM.
With `COc1nc(-c2cccc(-c3cccc(-c4cnc(CN[C@@H]5CC[C@@H]6CC(=O)N[C@@H]65)c(OC)n4)c3Cl)c2Cl)cnc1CNC[C@@H]1CCC(=O)N1` [compound 387], the concentration for half-maximal inhibition (IC50) was 0.625 nM.
With `COc1nc(-c2cccc(-c3cccc(-c4cnc(CN[C@@H]5CC[C@@H]6CC(=O)N[C@@H]65)c(OC)n4)c3Cl)c2Cl)cnc1CN[C@@H]1CC[C@@H]2CC(=O)N[C@@H]21` [compound 388] the figure was 1.22 nM.
The value for `COc1nc(-c2cccc(-c3cccc(-c4cnc(CN5CC6(CNC(=O)C6)C5)c(OC)n4)c3Br)c2Cl)cnc1CN1CC2(CNC(=O)C2)C1` [compound 389] was 0.211 nM; that for `COc1nc(-c2cccc(-c3cccc(-c4cnc(CN5CC6(CCC(=O)N6)C5)c(OC)n4)c3Br)c2Cl)cnc1CN1CC2(CCC(=O)N2)C1` [compound 390] was 0.146 nM; that for `COc1nc(-c2cccc(-c3cccc(-c4cnc(CN5CC(O)C5)c(OC)n4)c3Br)c2Cl)cnc1CN1CC(O)C1` [compound 391] was 0.232 nM.
As for `COc1nc(-c2cccc(-c3cccc(-c4cnc(CNC[C@H]5CCC(=O)N5)c(OC)n4)c3Br)c2Cl)cnc1CNC[C@H]1CCC(=O)N1` [compound 392], the IC50 turned out to be 0.246 nM.
The value for `COc1nc(-c2cccc(-c3cccc(-c4cnc(CN5CC6(CNC(=O)C6)C5)c(OC)n4)c3Br)c2F)cnc1CN1CC2(CNC(=O)C2)C1` [compound 393] was 2.23 nM; that for `COc1nc(-c2cccc(-c3cccc(-c4cnc(CN5CC6(CCC(=O)N6)C5)c(OC)n4)c3Br)c2F)cnc1CN1CC2(CCC(=O)N2)C1` [compound 394] was 1.78 nM; that for `COc1nc(-c2cccc(-c3cccc(-c4cnc(CN5CC(O)C5)c(OC)n4)c3Br)c2F)cnc1CN1CC(O)C1` [compound 395] was 9.24 nM.
With `COc1nc(-c2cccc(-c3cccc(-c4cnc(CNC[C@@H]5CCC(=O)N5)c(OC)n4)c3Br)c2F)cnc1CNC[C@@H]1CCC(=O)N1` [compound 396] the figure was 2.02 nM; with `COc1nc(-c2cc(F)cc(-c3cc(F)cc(-c4cnc(CNC[C@@H]5CCC(=O)N5)c(OC)n4)c3Cl)c2Cl)cnc1CNC[C@@H]1CCC(=O)N1` [compound 397], 0.561 nM.
With `COc1nc(-c2cccc(-c3cc(F)cc(-c4cnc(CNC[C@@H]5CCC(=O)N5)c(OC)n4)c3Cl)c2Cl)cnc1CNC[C@@H]1CCC(=O)N1` [compound 398], the IC50 was found to be 0.195 nM.
For the compound `COc1nc(-c2cccc(-c3cc(F)cc(-c4cnc(CN5CC(O)C5)c(OC)n4)c3Cl)c2Cl)cnc1CN1CC(O)C1` [compound 399], the concentration for half-maximal inhibition (IC50) stood at 0.324 nM.
